Experimental data published in patent publication US6825217B2, “Carbinols for the treatment of neuropathic dysfunction” (Endo Pharmaceuticals, Inc., priority 2001, dated 2004).

Experiments:
[1] = target: T1, rat synaptosomal 5-HT Reuptake (Rattus norvegicus, UniProt P31652); test: Serotonin reuptake assay (rat synaptosomal 5-HT uptake); type: biochemical
T1 construct: rat synaptosomal 5-HT and NE Reuptake; from tissue; host or cells: rat synaptosomes (rat brain preparations)

[2] = target: T2, kappa receptor sites in the brain (Homo sapiens, UniProt P41145); test: Activity at kappa receptor sites in the brain; type: binding
T2 construct: mu, kappa, delta or sigma receptor sites in the brain; from tissue

[3] = test system: sigma receptor sites in the brain; test: Activity at sigma receptor sites in the brain; type: binding
prostaglandin synthesase = test: Prostaglandin synthesase inhibition; type: biochemical
[4] = Anti-inflammatory effects in vivo
[5] = Studies in animals: addictive and respiratory depressant properties; type: in vivo; settings: versus narcotic-related analgesics
Formalin model = type: in vivo; settings: rat
Description: Formalin induces inflammatory stimulation of peripheral nerves that results in sensitization of CNS nociceptive transmission pathways. There are two phases of formalin-induced nociception: phase I—an acute nociceptive component; and phase II—a chronic nociceptive component characterized by hyperalgesia.
On the morning of formalin testing, a small metal band (0.5 g) was loosely placed around the right hind paw. The rat was placed in a cylindrical Plexiglas chamber for adaptation for a minimum of 30 minutes. Compound A, venlafaxine or a saline control was administered into the dorsal surface of the right hindpaw of the rat. The animal was then placed into the chamber of the automated formalin apparatus where movement of the formalin-injected paw was monitored and the number of paw flinches tallied by minute over the next sixty minutes. Upon completion of the test the animal was removed and euthanized.

[6] = Chung model (tactile allodynia); type: in vivo, rat
Method: This model for neuropathic pain was performed on rats using the surgical procedure described by Kim and Chung (1992) to induce an allodynic state. Briefly, the left L-5 and L-6 spinal nerves were isolated adjacent to the vertebral column and ligated with 6-0 silk suture distal to the dorsal root ganglion under isoflurane anesthesia. This model allows for spinal cord structural reorganization and growth of low threshold mechnoreceptor fibers from the spinal cord with synaptic connections and rewiring of the dorsal horn. This leads to spontaneous firing of invading sympathetic nerves and upregulation of receptors and voltage-dependent channels; i.e. mimics the development of allodynia (nociceptive response to a previously neutral stimulus). The rats were allowed a minimum of 7-days postoperative recovery period before testing.
To assess tactile thresholds in the Chung model, rats were placed in a clear plastic, wire mesh-bottomed cage, divided into individual compartments. Animals were allowed to acclimate and then baseline thresholds were assessed prior to drug treatment. To assess the 50% mechanical threshold for paw withdrawal, von Frey hairs were applied to the plantar mid-hindpaw, avoiding the tori (footpads). The eight von Frey hairs used are designated by [log (10*force required to bend hair, mg)] and range from 0.4-15.1 grams (#'s 3.61-5.18). Each hair was pressed perpendicularly against the paw with sufficient force to cause slight bending, and held for approximately 6-8 seconds. A positive response was noted if the paw was sharply withdrawn. Flinching immediately upon removal of the hair was also considered a positive response. Absence of a response (“−”) was cause to present the next consecutive stronger stimulus; a positive response (“+”) was cause to present the next weaker stimulus. Stimuli were presented successively until either six data points were collected, or the maximum or minimum stimulus was reached. If a minimum stimulus was reached and positive responses still occurred, the threshold was assigned an arbitrary minimum value of 0.25 grams; if a maximum stimulus was presented and no response occurred, a maximum threshold value of 15 grams was assigned. If a change in response occurs, either “−” to “+” or “+” to “−”, causing a change in the direction of stimulus presentation from descending to ascending or vice-versa, four additional data points were collected subsequent to the change.

[7] = Mouse antiphenylquinone writhing (PQW) test; type: in vivo
Method: (§1) The anti-phenylquinone writhing (PQW) test modified from the methods of Siegmund et al. (Proc. Soc. Exp. Biol. Med. 95: 729-731, 1957) and Blumberg et al. (Proc. Exp. Biol. Med. 118: 763-767, 1965) was used to assess the relief from the simulated symptoms of neuropathic pain in mice. Male CF1 mice (Charles River Breeding Laboratories, Wilmington, Mass.), fasted for 16-22 hours and weighing 18-23 g, were injected with randomized and coded doses of test compounds, then challenged with 1.25 mg/kg i.p. phenyl-p-benzoquinone (phenylquinone) 5 minutes prior to the specified observation time. The phenylquinone solution (0.1 mg/ml in 5% aqueous ethanol) was prepared daily and stored in foil-wrapped amber bottles to limit degradation. Mice were observed 10 minutes for the presence or absence of the characteristic abdominal constriction and stretching response beginning 30 minutes after injection of the test compound. Activity was calculated as the percentage of mice failing to respond to the phenylquinone challenge dose. […] Median effective doses (ED50's) and 95% confidence limits were determined numerically by the methods of Thompson (Bacteriological Rev. 11: 115-145, 1947), and Litchfield and Wilcoxon (J. Pharmacol. Exp. Ther. 96: 99-113, 1949).

Rat PQW = type: in vivo
Method: as §1

Mouse Tail-Flick = type: in vivo; parameters: key to activity in mouse Tail flick model: *: Inactive; Φ: Weakly active
Rat tooth pulp = type: in vivo; settings: unmarked entry of animal model table
Dog tooth pulp = type: in vivo; settings: unmarked entry of animal model table
Bacterial Mutagenicity = test: In Vitro Bacterial Mutagenicity: Modified Ames Test; type: cell-based
[8] = Fourteen-day Oral Dose Range Finding Study in Rats; type: in vivo, rat
[9] = Five-day Oral Dose Escalation in Beagle Dogs; type: in vivo, Beagle dog
Safety pharmacology, rat = type: in vivo
[10] = Safety pharmacology, monkey; type: in vivo
[11] = all administered doses, versus saline control

T1 sequence (P31652 whole entry): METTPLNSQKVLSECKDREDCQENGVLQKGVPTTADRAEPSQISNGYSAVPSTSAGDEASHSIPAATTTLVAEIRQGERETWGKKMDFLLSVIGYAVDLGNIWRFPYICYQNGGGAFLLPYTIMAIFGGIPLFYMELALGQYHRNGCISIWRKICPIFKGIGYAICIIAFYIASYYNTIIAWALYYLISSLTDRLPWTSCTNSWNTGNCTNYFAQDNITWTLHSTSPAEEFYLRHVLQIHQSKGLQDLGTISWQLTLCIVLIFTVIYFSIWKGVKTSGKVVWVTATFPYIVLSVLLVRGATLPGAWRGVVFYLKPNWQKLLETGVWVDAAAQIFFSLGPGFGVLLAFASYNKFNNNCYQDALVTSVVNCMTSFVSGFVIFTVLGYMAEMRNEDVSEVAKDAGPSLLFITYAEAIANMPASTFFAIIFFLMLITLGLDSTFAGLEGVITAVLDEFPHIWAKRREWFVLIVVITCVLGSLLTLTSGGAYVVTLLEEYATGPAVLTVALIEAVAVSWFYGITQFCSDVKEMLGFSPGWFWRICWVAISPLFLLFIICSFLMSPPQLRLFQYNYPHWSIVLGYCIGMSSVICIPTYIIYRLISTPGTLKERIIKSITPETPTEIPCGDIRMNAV
T2 sequence (P41145 whole entry): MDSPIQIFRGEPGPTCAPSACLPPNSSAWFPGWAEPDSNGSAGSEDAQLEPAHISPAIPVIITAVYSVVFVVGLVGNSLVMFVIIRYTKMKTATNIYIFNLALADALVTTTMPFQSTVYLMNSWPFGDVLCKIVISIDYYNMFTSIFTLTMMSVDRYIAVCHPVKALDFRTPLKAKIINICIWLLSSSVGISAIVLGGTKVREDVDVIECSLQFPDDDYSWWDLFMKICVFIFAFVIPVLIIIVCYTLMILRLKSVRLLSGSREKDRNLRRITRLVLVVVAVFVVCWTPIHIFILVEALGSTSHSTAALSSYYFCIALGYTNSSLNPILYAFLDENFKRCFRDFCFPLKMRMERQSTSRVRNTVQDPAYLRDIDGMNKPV

SMILES: CN1CCC(c2ccsc2)(C(C)(C)O)CC1 [Compound A, 4-(3-thienyl)-α,α,1-trimethyl-4-piperidinemethanol]
- IC50 [1]: 120 nM
- uptake of serotonin ([1]; rat brain preparations): inhibits uptake
- activity at kappa receptor sites [2]: does not show significant activity
- activity at sigma receptor sites [3]: does not show significant activity
- inhibition of prostaglandin synthesase activity (prostaglandin synthesase): does not inhibit
- anti-inflammatory effects in vivo [4]: does not inhibit prostaglandin synthesase activity or show anti-inflammatory effects in vivo
- addictive and respiratory depressant properties [5]: lacks the addictive and respiratory depressant properties
- effect upon hyperalgesia induced by injection of formalin into the paw (Formalin model): reliable dose dependent effect
- formalin test, paw flinches, phase I (Formalin model; all administered doses (200/100/50 mg per kg), versus saline control): statistically significant effects
- formalin test, paw flinches, phase II (Formalin model; [11]): statistically significant effects
- formalin test, paw flinches, phase IIA (Formalin model; [11]): statistically significant effects
- formalin test, paw flinches, Phase IIB (Formalin model; versus saline control): No statistical significance
- effect upon arousal or motor function ([6]; at doses effective in formalin and Chung models): no effect upon arousal or motor function
- effect upon tactile allodynia arising from nerve injury ([6]; rat): reliable dose dependent effect
- effects on tactile allodynia ([6]; rat, two hours post injection, doses 200 mg/kg and 100 mg/kg): statistically significant effects
- ED50 ([7]; Mus musculus): 18 mg/kg
- activity in mouse PQW model ([7]; mouse, unmarked entry of animal model table): showed activity
- ED50 (Rat PQW; Rattus norvegicus): 7.9 mg/kg
- activity in rat PQW model (Rat PQW; rat, unmarked entry of animal model table): showed activity
- ED50 (Mouse Tail-Flick; Mus musculus, read-out: Mouse Tail-Flick ED50): 117 mg/kg
- activity in mouse Tail flick model (Mouse Tail-Flick; mouse): Tail flick^Φ
- activity in rat Tooth pulp model (Rat tooth pulp): showed activity
- activity in dog Tooth pulp model (Dog tooth pulp): showed activity
- In Vitro Bacterial Mutagenicity: Modified Ames Test (Bacterial Mutagenicity): Not mutagenic
- NOEL (exophthalamos) [8]: NOEL < 30 mg/kg
- NOAEL at 14 day ([8]; rat, in vivo): 100 mg/kg
- NOEL (mydriasis) [9]: NOEL < 2.5 mg/kg
- MTD at 5 day ([9]; dog, in vivo, read-out: MTD (decreased BW)): < 20 mg/kg
- LD (Safety pharmacology, rat; po): LD = 400 mg/kg-po
- anorexia, multiple of effective dose (mg/kg) (Safety pharmacology, rat; po): 10,100,300 mg/kg
- physical dep (Safety pharmacology, rat; po): non-opioid
- respiratory acidosis, exophthalmia, multiple of effective dose (Safety pharmacology, rat; po): 1-50 X
- LD (Safety pharmacology, rat; sc): LD = 270 mg/kg-sc
- MTD ([10]; in vivo, other: iv/sc): 16 to 32 mg/kg
- LD ([10]; iv/sc): LD = 1.6-32 mg/kg
- physical dep ([10]; iv/sc): non-opioid
- respiratory depression, multiple of effective dose (mg/kg) ([10]; iv/sc): 16/32
- Chronic dosing: effect at 0.4 ([10]; iv/sc, 0.4, at 7 days): 0.4 = retching
- Chronic dosing: effect at 1.6 ([10]; iv/sc, 1.6, at 11 days): 1.6 = death
- Chronic dosing: effect at 1.6 ([10]; iv/sc, 1.6, at 20 days): 1.6 = death
